Measurements: US20180135134A1, “TARGETED SELECTION OF PATIENTS FOR TREATMENT WITH CORTISTATIN DERIVATIVES” (President and Fellows of Harvard College, priority 2015, published 2018)

How the values were obtained:
[1] = system: SET-2; experiment: Synergy assay with ruxolitinib (Chou-Talalay), SET-2; assay type: cell-based, human; details: combination of cortistatin A with JAK1/2 inhibitor ruxolitinib, FIG. 5
Procedure: (§1) SET-2 and UKE-1 cells were co-treated with constant ratios of ruxolitinib to CA, 1 to 1 or 10 to 1, in a 96-well growth assay format with a range of 2-fold dose dilutions of compounds. SET-2 and UKE-1 cells were also treated with ruxolitinib alone or CA alone in a 2-fold dilution series. The Chou-Talalay combination index values at 50% growth inhibition (Fa=0.5) were determined using CalcuSyn software (see Chou, T. C. Cancer Res. 2010 Jan. 15; 70(2):440-6) (FIG. 5).

[2] = system: UKE-1; experiment: Synergy assay with ruxolitinib (Chou-Talalay), UKE-1; assay type: cell-based, human; details: combination of cortistatin A with JAK1/2 inhibitor ruxolitinib, FIG. 5
Procedure: as §1

[3] = system: RUNX1; experiment: RUNX1 recruitment to genomic loci; assay type: cell-based, human; details: FIG. 11
[4] = target: CDK19 W105M (Homo sapiens, UniProt Q9BWU1, W105M); details: expression of CDK19 W105M; FIG. 9
Procedure: 5′-Flag-tagged CDK8 and CDK19 were cloned from pBabe.puro.CDK8.flag (Addgene 19758) and F-CDK8L (Addgene 24762) into pLVX-EF1alpha-IRES-mCherry and pLVX-EF1alpha-IRES-ZsGreen (Clontech) and transformed into E. coli (One Shot Stbl3, Invitrogen). Point mutations were introduced by whole-plasmid PCR (QuikChange II XL Site-Directed Mutagenesis Kit, Agilent). pLVX lentiviral vectors were co-transfected with psPASx and pMD2.G (Addgene) in 293T cells. After 48 h, viral supernatants were collected and passed through a 0.45 m filter (Millipore). For transductions, 24-well plates were coated with 500 μl of 20 μg ml RetroNectin (Clontech) at 4° C. overnight, blocked with 2% BSA for 30 min, washed with PBS, and 300-500 μl of viral supernatant was added. The plates were centrifuged (2,000 g, 1.5 h) and then set in an incubator. After 2 h, viral supernatant was removed and 500 μl per well of 200,000 cells per ml was added. After 1-3 days, the cells were expanded and isolated by FACS.

[5] = system: RL95-2; experiment: Soft agar growth assay (Alamar Blue); details: ER-alpha positive, 100 nM cortistatin A
Procedure: (§2) For the 62 cell lines 96 well suspension cell culture plates were prepared. 100 μL of the soft agar bottom layer (0.6% final concentration in complete medium) was poured and left to solidify. 50 μL of the soft agar top layer (0.4% final concentration) containing the corresponding cells and cell number were then added on top, solidified and incubated at 37° C., 10% CO2. After the soft agar had solidified, the test items were added at indicated final concentrations into the inner wells of the plate. Subsequently, the assay was incubated in cell culture incubators for 8 to 14 days. Finally, the assay was developed using Alamar Blue and upon 1-5 h of incubation at 37° C. fluorescence intensity was determined (excitation: 560 nm; emission: 590 nm). As low control, cells were treated with 1E-05M Staurosporine (6fold values). As high control, cells were treated with 0.1% DMSO (solvent control, 6 fold values).
(§3) Raw data were converted into percent soft agar growth relative to high controls (solvent 0.1% DMSO) and low controls (1E-05M Staurosporine), which were set to 100% and 0%, respectively.

[6] = system: A498; experiment: Soft agar growth assay (Alamar Blue); details: clear cell renal cell carcinoma, Loss of function VHL mutation (VHL negative), 100 nM cortistatin A
Procedure: as §2, §3

[7] = system: SK.BR-3; experiment: Soft agar growth assay (Alamar Blue); details: Breast cancer, HER2 overexpression, 100 nM cortistatin A
Procedure: as §2, §3

[8] = system: SK-N-SH; experiment: Soft agar growth assay (Alamar Blue); details: Neuroblastoma, 100 nM cortistatin A
Procedure: as §2, §3

[9] = system: SK-N-MC; experiment: Soft agar growth assay (Alamar Blue); details: Neuroblastoma, EWS-FLI1, 100 nM cortistatin A
Procedure: as §2, §3

[10] = system: SK-ES-1; experiment: Soft agar growth assay (Alamar Blue); details: EWS-FLI1, 100 nM cortistatin A
Procedure: as §2, §3

[11] = system: REH; experiment: Cellular proliferation assay (CellTiter-Glo); details: Homo sapiens
Procedure: (§4) All suspension cells were plated (96-well) in triplicate at 5,000-30,000 cells per well for testing (n=3). Viable cell number was estimated after 3, 7 and 10 days by counting viable cells from one vehicle well, generating a cell dilution series, transferring 20 ml per well in duplicate to a 384-well plate, and performing a linear regression to CellTiter-Glo (Promega) response (SPECTRAmax M3, Molecular Devices). Cells from all wells were also fourfold diluted in media and transferred in duplicate for CellTiter-Glo measurement. On days 3 and 7, an equal volume for all wells was split-back with fresh media and compound, such that the resulting cell density for the vehicle well matched the initial seeding density. For days 7 and 10, estimated cell number represents the split-adjusted theoretical cell number. […] For growth assays with inhibitors, n=3 for each concentration with two independent experiments.

[12] = system: SET-2; experiment: Cellular proliferation assay (CellTiter-Glo); details: for GI50: Homo sapiens
Procedure: as §4

[13] = system: MM1.S; experiment: Cellular proliferation assay (CellTiter-Glo); details: Homo sapiens
Procedure: (§5) All suspension cells were plated (96-well) in triplicate at 5,000-30,000 cells per well for testing (n=3). Viable cell number was estimated after 3, 7 and 10 days by counting viable cells from one vehicle well, generating a cell dilution series, transferring 20 ml per well in duplicate to a 384-well plate, and performing a linear regression to CellTiter-Glo (Promega) response (SPECTRAmax M3, Molecular Devices). Cells from all wells were also fourfold diluted in media and transferred in duplicate for CellTiter-Glo measurement. On days 3 and 7, an equal volume for all wells was split-back with fresh media and compound, such that the resulting cell density for the vehicle well matched the initial seeding density. For days 7 and 10, estimated cell number represents the split-adjusted theoretical cell number. HCT116 were plated (96-well) in triplicate at 250 cells per well. Cells were incubated in the presence of vehicle, 1 μM paclitaxel, or compound. On day 7, CellTiter-Blue (Promega) response was measured and values were normalized to vehicle (100% growth) and paclitaxel (0% growth). For growth assays with inhibitors, n=3 for each concentration with two independent experiments.

[14] = system: MOLM-14; experiment: Cellular proliferation assay (CellTiter-Glo); details: Homo sapiens
Procedure: as §4

[15] = system: UKE-1; experiment: Cellular proliferation assay (CellTiter-Glo); details: Homo sapiens, UKE1
Procedure: as §4

[16] = system: HL-60; experiment: Cellular proliferation assay (CellTiter-Glo); details: Homo sapiens
Procedure: as §4

[17] = system: CMK-86; experiment: Cellular proliferation assay (CellTiter-Glo); details: Homo sapiens
Procedure: as §4

[18] = system: MEG-01; experiment: Cellular proliferation assay (CellTiter-Glo); details: Homo sapiens
Procedure: as §4

[19] = system: ARH-77; experiment: Cellular proliferation assay (CellTiter-Glo); details: Homo sapiens
Procedure: as §4

[20] = system: Kasumi-1; experiment: Cellular proliferation assay (CellTiter-Glo); details: Homo sapiens
Procedure: as §4

[21] = system: TF-1; experiment: Cellular proliferation assay (CellTiter-Glo); details: Homo sapiens
Procedure: as §5

[22] = system: K562; experiment: Cellular proliferation assay (CellTiter-Glo); details: Homo sapiens
Procedure: as §4

[23] = system: MKPL-1; experiment: Cellular proliferation assay (CellTiter-Glo); details: Homo sapiens, 240 h
Procedure: as §4

[24] = system: SET-2 cells; experiment: SET-2 differentiation assay (CD41/CD61 flow cytometry); details: 50 nM cortistatin A, 3 days; FIG. 3
Procedure: Cell pellets were collected at 4° C., washed three times with cold PBS, and stained with anti-CD61-PE (ab91128) or anti-CD41-PerCP (ab134373) and analyzed by flow cytometry.

CDK19 W105M, sequence (Q9BWU1 whole entry W105M): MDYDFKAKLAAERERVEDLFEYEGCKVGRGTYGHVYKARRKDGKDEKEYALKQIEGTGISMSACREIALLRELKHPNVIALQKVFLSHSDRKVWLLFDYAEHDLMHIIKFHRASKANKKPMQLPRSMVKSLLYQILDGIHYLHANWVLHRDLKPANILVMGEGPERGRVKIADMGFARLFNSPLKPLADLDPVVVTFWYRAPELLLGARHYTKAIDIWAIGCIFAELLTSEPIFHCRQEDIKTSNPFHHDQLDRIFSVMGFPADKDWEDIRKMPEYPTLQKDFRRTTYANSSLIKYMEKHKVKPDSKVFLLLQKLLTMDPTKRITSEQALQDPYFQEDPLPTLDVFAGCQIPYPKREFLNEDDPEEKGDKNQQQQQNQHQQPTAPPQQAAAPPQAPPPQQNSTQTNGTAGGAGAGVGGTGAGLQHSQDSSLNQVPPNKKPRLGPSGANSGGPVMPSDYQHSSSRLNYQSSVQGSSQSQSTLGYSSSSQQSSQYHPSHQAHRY
CDK19 W105M, sequence (P24863 whole entry partner): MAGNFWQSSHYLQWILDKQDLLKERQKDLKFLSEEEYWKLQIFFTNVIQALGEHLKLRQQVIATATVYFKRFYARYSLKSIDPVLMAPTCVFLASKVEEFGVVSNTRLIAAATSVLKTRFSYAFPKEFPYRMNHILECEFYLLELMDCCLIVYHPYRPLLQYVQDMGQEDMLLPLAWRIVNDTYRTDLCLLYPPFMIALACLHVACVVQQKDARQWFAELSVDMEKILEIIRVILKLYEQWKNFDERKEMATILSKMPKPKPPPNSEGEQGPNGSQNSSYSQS

CN(C)[C@H]1C[C@@]23CC[C@@]4(O2)C(=CC[C@]2(C)[C@@H](c5ccc6ccncc6c5)CC[C@H]24)C=C3[C@@H](O)[C@@H]1O [Cortistatin A, cortistatin A]
combination index (synergy) for inhibition of proliferation [1]: synergizes | combination index (synergy) for inhibition of proliferation [2]: synergizes | RUNX1 recruitment to loci [3]: RUNX1 was recruited to loci upregulated by CA treatment | growth of MOLM-14 cells expressing drug resistant allele [4]: able to proliferate in the presence of cortistatin A | % growth rel. to vehicle [5]: 16% | % growth rel. to vehicle [6]: 51% | % growth rel. to vehicle [7]: 22% | % growth rel. to vehicle [8]: 29% | % growth rel. to vehicle [9]: 45% | % growth rel. to vehicle [10]: 36% | GI50 [11]: 1 nM | GI50 ([12]; SET-2): 4 nM | GI50 ([12]; SET-2, 240 h): 4 nM | proliferation of SET-2 cells (theoretical cell number versus days of treatment) ([12]; dose-dependent, FIG. 4): inhibits the proliferation of SET-2 cells | GI50 [13]: 5 nM | GI50 ([14]; MOLM-14): 5 nM | GI50 ([14]; MOLM-14, 240 h): 5 nM | GI50 [15]: 7 nM | GI50 [16]: 7 nM | GI50 ([17]; CMK-86): 8 nM | GI50 ([17]; CMK-86, 240 h): 8 nM | GI50 ([18]; MEG-01): 9 nM | GI50 ([18]; MEG-01, 240 h): 9 nM | GI50 [19]: 16 nM | GI50 [20]: 95 nM | GI50 [21]: 350 nM | GI50 ([22]; K562): > 1000 nM | GI50 ([22]; K562, 240 h): > 1000 nM | GI50 [23]: 1 nM | differentiation of SET-2 cells (percent of cells with megakaryocytic markers CD41 and CD61) [24]: induces differentiation of SET-2 cells
